Data published in article PMC8403742, “A single point mutation causes one-way alteration of pheromone receptor function in two Heliothis species” (iScience, 2021).
“Also recorded” adds a separate entry of the source.

Legend:
HsubOR16/HsubOrco = HsubOR16/HsubOrco co-expressed in Xenopus oocytes, two-electrode voltage clamp; conditions: 10^-4 M solution
Protocol: (§1) Stock solutions (1 M) were dissolved in dimethyl sulfoxide (DMSO) and stored at −20°C. Before experiments, the stock solution was diluted in 1 × Ringer's buffer (96 mM NaCl, 2 mM KCl, 5 mM MgCl2, 0.8 mM CaCl2 and 5 mM HEPES, pH 7.6) to working concentration of 10^−4 M. 1 × Ringer's buffer containing 0.1% DMSO was used as a negative control.
(§2) The vectors contain the full ORF of all ORs were linearized to prepare the templates and the cRNA was synthesized with mMESSAGE mMACHINE SP6 (Ambion). Stage V to VII oocytes were treated with 2 mg/mL collagenase I (GIBCO, Carlsbad, CA) in 1 × Ca^2+-free washing buffer (96 mM NaCl, 2 mM KCl, 5 mM MgCl2 and 5 mM HEPES, pH 7.6) for about 1 h at room temperature. After being cultured overnight at 18°C, oocytes were then microinjected with 27.6 ng of Orco cRNA and 27.6 ng of ORs cRNA. Oocytes microinjected with 55.2 ng of Orco were used as negative controls. Injected oocytes were incubated for 4–7 days at 18°C in 1 × washing buffer (96 mM NaCl, 2 mM KCl, 5 mM MgCl2, 0.8 mM CaCl2 and 5 mM HEPES, pH 7.6) supplemented with 5% dialysed horse serum, 50 mg/mL tetracycline, 100 mg/mL streptomycin and 550 mg/mL sodium pyruvate.
(§3) Whole-cell currents were recorded with a two-electrode voltage clamp from the injected oocytes. Odorant-induced currents were recorded with an OC-725C oocyte clamp (Warner Instruments, Hamden, CT, USA) at a holding potential of −80 mV. […]

HsubOR14/HsubOrco = HsubOR14/HsubOrco co-expressed in Xenopus oocytes, two-electrode voltage clamp; conditions: 10^-4 M solution
Protocol: as §1, §2, §3

HsubOR6/HsubOrco = HsubOR6/HsubOrco (Heliothis subflexa, UniProt A0A8E4MSQ8); assay: HsubOR6/HsubOrco co-expressed in Xenopus oocytes, two-electrode voltage clamp; assay type: cell-based; conditions: for response of receptor to compound: 10^-4 M solution
HsubOR6/HsubOrco, sequence (A0A8E4MSQ8 1-424): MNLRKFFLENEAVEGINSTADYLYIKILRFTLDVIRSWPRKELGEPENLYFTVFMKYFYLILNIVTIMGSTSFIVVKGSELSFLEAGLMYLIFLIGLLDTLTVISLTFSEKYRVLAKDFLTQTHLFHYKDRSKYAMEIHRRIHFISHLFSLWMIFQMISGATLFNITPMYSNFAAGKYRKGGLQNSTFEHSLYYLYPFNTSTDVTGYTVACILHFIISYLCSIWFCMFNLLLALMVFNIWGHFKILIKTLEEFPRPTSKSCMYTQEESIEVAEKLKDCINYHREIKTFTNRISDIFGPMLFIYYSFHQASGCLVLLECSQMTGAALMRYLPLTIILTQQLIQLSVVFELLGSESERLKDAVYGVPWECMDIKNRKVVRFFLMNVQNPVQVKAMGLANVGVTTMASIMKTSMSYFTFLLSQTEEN

HvirOR6/HvirOrco = HvirOR6/HvirOrco (Heliothis virescens, UniProt Q8MMI0); assay: HvirOR6/HvirOrco co-expressed in Xenopus oocytes, two-electrode voltage clamp; assay type: cell-based; conditions: for response of receptor to compound / response (inward current): HvirOR6/HvirOrco Xenopus oocytes; for response (inward current): concentration of 10^-4 M
[1] = molecular target: VM321 (HvirOR6 L321V, VM6) (Heliothis virescens, UniProt Q8MMI0, L321V); assay: cell-based; assay type: cell-based; conditions: for response of mutant receptor to compound: 10^-4 M, HvirOR6 L321V (VM6/VM321)
SM321 (HsubOR6 V321L) = SM321 (HsubOR6 V321L) (Heliothis subflexa, UniProt A0A8E4MSQ8, V314L); assay: cell-based; assay type: cell-based; conditions: for response of mutant receptor compared with HsubOR6: 10^-4 M, HsubOR6 V321L (SM321)
[2] = test system: chimeric OR6s (VSS, SVV, VVS, and SSV); assay type: cell-based, Heliothis virescens, Heliothis subflexa
[3] = test system: HvirOR6 mutants VM5, VM7, VM10, VM11, VM13, VM14, VM17, VM21, VM22, and VM30; assay type: cell-based, Heliothis virescens; conditions: 10^-4 M, 10 mutants VM5, VM7, VM10, VM11, VM13, VM14, VM17, VM21, VM22, VM30
[4] = test system: HvirOR6 mutants VM1, VM2, VM3, VM4, VM12, VM15, VM16, VM20, VM23, VM24, VM29, and VM31; assay type: cell-based, Heliothis virescens; conditions: 10^-4 M, 12 mutants VM1, VM2, VM3, VM4, VM12, VM15, VM16, VM20, VM23, VM24, VM29, VM31
HvirOR6 mutant VM18 = assay type: cell-based, Heliothis virescens; conditions: 10^-4 M
HvirOR6 mutant VM19 = assay type: cell-based, Heliothis virescens; conditions: 10^-4 M
[5] = test system: HvirOR6 mutants VM8, VM26, VM27, and VM28; assay type: cell-based, Heliothis virescens; conditions: 10^-4 M
[6] = test system: HvirOR6 mutants VM9 and VM25; assay type: cell-based, Heliothis virescens; conditions: 10^-4 M
HsubOR13/HsubOrco = HsubOR13/HsubOrco co-expressed in Xenopus oocytes, two-electrode voltage clamp; conditions: 10^-4 M solution
Protocol: as §1, §2, §3

Structure (SMILES)	response of receptor to compound (HsubOR6/HsubOrco)	response of receptor to compound (HvirOR6/HvirOrco)	response (inward current) (HvirOR6/HvirOrco)	response of mutant receptor to compound [1]	response of mutant receptor compared with HsubOR6 (SM321 (HsubOR6 V321L))	response of chimeric OR6s compared with original sequences [2]	response of HvirOR6 mutants compared with HvirOR6 [3]	response of HvirOR6 mutants compared with HvirOR6 [4]	other results
CCCC/C=C\CCCCCCCCCCO [Z11-16:OH, (Z)-11-hexadecen-1-ol]	–	–	–	–	–	–	–	–	response of receptor to compound (HsubOR16/HsubOrco): responded robustly
CCCC/C=C\CCCCCCCCCCOC(C)=O [Z11-16:OAc, (Z)-11-hexadecenyl acetate]	–	–	–	–	–	–	–	–	response of receptor to compound (HsubOR14/HsubOrco): specifically activated
CCCCCC/C=C\CCCCCCCC=O [Z9-16:Ald, (Z)-9-hexadecenal]	responded; also recorded: specifically responsive	responsive	187.44 nA	retaining the response	increased	decreased significantly	did not have altered responses	significant decrease in the response	average response (inward current) (HsubOR6/HsubOrco; concentration of 10^-4 M): 184.04 nA; EC50 (HsubOR6/HsubOrco; holding potential -80 mV, read-out: EC50 (dose-response of inward current)): 46.3 µM; EC50 (HvirOR6/HvirOrco): 24.8 µM; EC50 [1]: 40.8 µM; EC50 (SM321 (HsubOR6 V321L)): 20.4 µM; response of HvirOR6 mutant compared with HvirOR6 (HvirOR6 mutant VM18): increased response; response of HvirOR6 mutant compared with HvirOR6 (HvirOR6 mutant VM19): decreased response
CCCC/C=C\CCCCCCCC=O [Z9-14:Ald, (Z)-9-tetradecenal]	little if any response; also recorded: lost its ability to recognize	responsive	1,541.96 nA	lost its response; also recorded: lost its ability to bind	remained unchanged	decreased significantly	did not have altered responses	significant decrease in the response	response to Z9-14:Ald relative to that to Z9-16:Ald (HvirOR6/HvirOrco; 10^-4 M, HvirOR6): about 8.23 times; response of HvirOR6 mutants compared with HvirOR6 [5]: increased responses; response of HvirOR6 mutants compared with HvirOR6 [6]: decreased responses
CCCC/C=C\CCCCCCCCCC=O [Z11-16:Ald, (Z)-11-hexadecenal]	–	–	–	–	–	–	–	–	response of receptor to compound (HsubOR13/HsubOrco): specifically responded
